The METLIN SMRT retention time set (Domingo-Almenara et al. 2019)

Test: gradient 5% acetonitrile 3 min, to 50% in 2 min, to 85% in 15 min, held 3 min, 100 µL/min
Conditions: column: Zorbax Extend-C18 2.1 x 50 mm; eluents: water / acetonitrile, 0.1% formic acid
Summary of the method: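 Retention times of pure standards were taken from adduct peaks that were selected by computer and manually inspected. Over 3 months, mixtures of ~100 molecules were run by HPLC–quadrupole time-of-flight mass spectrometry in positive and negative ionization mode. The Zorbax Extend-C18 column (2.1 × 50 mm, 1.8 μm) ran at 100 μL/min in water and acetonitrile, each containing 0.1% formic acid, with 40 μL dead volume and 900 μL dwell volume.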
Compound `O=C(Cn1c(-c2ccccc2F)nc2ccccc21)N1CCOCC1` has an RP-LC retention time of 600 s.
With `COc1ccc(CNC(=O)c2ccc3c(=O)n(Cc4ccccc4)c(N4CCCC4)nc3c2)cc1` the RP-LC retention time was 956 s.
With `O=C(NC1CCCC1)N1CCC(Oc2ccc(-c3noc(C4CC4)n3)cc2)C1` (stereo not drawn) the RP-LC retention time was 904 s.
In the case of `O=C(CN1CCN(c2ccccn2)CC1)Nc1ccc(F)c(F)c1`, the RP-LC retention time is reported as 576 s.
In the case of `CC(C)Oc1ccc(CN2CCn3c(nn(CC4CC4)c3=O)C2)cc1`, the RP-LC retention time is reported as 761 s.
Work on `Cc1nc(C2(C)CCN(C(=O)CCc3cc(Cl)no3)CC2)no1` yielded an RP-LC retention time of 750 s.
In the case of `Cn1c(=O)oc2cc(-c3noc(-c4cc(F)ccc4Cl)n3)ccc21`, the RP-LC retention time is reported as 1090 s.
With `Cc1ccnc(SCC(=O)Nc2nc(-c3ccccc3)cs2)n1` the RP-LC retention time was 917 s.
Compound `CCCNC(=O)c1ccc(-c2csc(C)n2)cc1` has an RP-LC retention time of 754 s.
`O=C(NCc1nc2ccccc2n1CC(=O)N1CCCC1)c1ccco1` gave an RP-LC retention time of 587 s.
For `O=C(CCn1c(=O)sc2ccccc21)Nc1nc(-c2ccccc2)cs1`, the RP-LC retention time was 1010 s.
With `Cn1c(=O)c(N2CCC(NC(=O)Nc3ccc4c(c3)OCO4)CC2)nc2ccccc21` the RP-LC retention time was 809 s.
Work on `CC(C)c1ccc(S(=O)(=O)NCC(c2cccnc2)c2c[nH]c3ccccc23)cc1` (stereo not drawn) yielded an RP-LC retention time of 772 s.
In the case of `CN1c2cc(Cl)ccc2C(=O)NC12CCN(C(=O)Nc1ccc3c(c1)OCCO3)CC2`, the RP-LC retention time is reported as 781 s.
Work on `CCn1cc(S(=O)(=O)N2C[C@@H](COC)[C@H](C(=O)NC)C2)cn1` yielded an RP-LC retention time of 603 s.
For `Cc1ccc(NS(=O)(=O)c2n[nH]c(C)c2C(=O)NCCc2cccs2)cc1`, the RP-LC retention time was 912 s.
`CC(C)c1noc(-c2cc(=O)n(CC(=O)Nc3ccc(F)cc3)c3ccccc23)n1` showed an RP-LC retention time of 995 s.
In the case of `O=S(=O)(c1cccnc1)N1CCN(c2ccc(-c3cccs3)nn2)CC1`, the RP-LC retention time is reported as 692 s.
Compound `COc1cc(-c2noc(-c3nn(-c4ccc(C)c(C)c4)ccc3=O)n2)cc(OC)c1OC` has an RP-LC retention time of 928 s.
With `CCC1Oc2ccc(S(=O)(=O)N3CCC(C(=O)Nc4ccc(C)cc4)CC3)cc2NC1=O` (stereo not drawn) the RP-LC retention time was 903 s.
Compound `CCC1CCCCN1C(=O)CN1C(=O)CCCc2cc(S(=O)(=O)N3CCC(C)CC3)ccc21` (stereo not drawn) has an RP-LC retention time of 1040 s.
Work on `COc1ccc(-c2c(C)noc2NC(C)=O)cc1S(=O)(=O)Nc1ccc(C#N)cc1` yielded an RP-LC retention time of 710 s.
With `Cc1cc([N+](=O)[O-])nn1CC(=O)Nc1c(F)cc(F)cc1Br` the RP-LC retention time was 762 s.
With `CCN(CC)C(=O)c1ccc2c(c1)N(CC(=O)NCCN1CCCCCC1)C(=O)CO2` the RP-LC retention time was 603 s.
With `CC(=O)c1ccc2c(c1)[C@H](NC(=O)c1ccc(F)c(Cl)c1)[C@H](O)C(C)(C)O2` the RP-LC retention time was 944 s.
`COc1nc2ccccc2nc1N1CCCC(C(=O)Nc2ccc(Br)c(C)c2C)C1` (stereo not drawn) showed an RP-LC retention time of 1260 s.
`CCn1nc(C(=O)NCCn2nc(C)cc2C)ccc1=O` gave an RP-LC retention time of 578 s.
`COC(=O)c1cccc(Nc2c(-c3ccc(C)cc3)nc3cnc(Br)cn23)c1` gave an RP-LC retention time of 994 s.
`CN1Cc2ccccc2-n2ccnc2C12CCN(C(=O)Cc1cccc(F)c1)CC2` gave an RP-LC retention time of 666 s.
For `Cc1ccc(-c2noc(-c3ccc(NCCCN4CCOCC4)nc3)n2)cc1`, the RP-LC retention time was 695 s.
In the case of `Cc1ccc(C)c(NC(=O)NCCc2cn(C)c3ncccc23)c1`, the RP-LC retention time is reported as 704 s.
`CC(C)c1nc2c(c(=O)n1CC(=O)NCc1cccs1)CN(Cc1ccccc1)CC2` showed an RP-LC retention time of 650 s.
In the case of `COc1ccc2c(c1)C1(CCN(C(=O)Nc3cccc(F)c3)C1)C(=O)N2C` (stereo not drawn), the RP-LC retention time is reported as 811 s.
With `CCN(Cc1cccnc1)C(=O)CN(c1ccc(OC)nc1)S(=O)(=O)c1ccccc1C` the RP-LC retention time was 734 s.
Work on `C[C@@H]1CCC2[C@](C)(CO)[C@@H](O)CC[C@]2(C)[C@]12CCC(CO)(CCO)O2` (stereo partly drawn) yielded an RP-LC retention time of 829 s.
Work on `NC(=O)c1ccccc1NC(=O)NC1CC(=O)N(c2ccc(Cl)cc2)C1` (stereo not drawn) yielded an RP-LC retention time of 667 s.
In the case of `O=C(NC1CCN(c2cc(N3CCCC3)cnn2)C1)C1CC1` (stereo not drawn), the RP-LC retention time is reported as 578 s.
With `CCCNC(=O)C1CCN(c2ccc(SCC(=O)Nc3ccc(C)cc3)nn2)CC1` the RP-LC retention time was 645 s.
For `O=c1c2cc(-c3ccc(F)cc3)nn2cnn1Cc1nc(-c2ccccc2Br)no1`, the RP-LC retention time was 1140 s.
Compound `O=Cc1ccc(O)c2ncccc12` has an RP-LC retention time of 658 s.
`Cc1ccccc1CC(=O)NC(C)C(=O)Nc1nc2ccccc2[nH]1` (stereo not drawn) showed an RP-LC retention time of 654 s.
`CCc1cc(=O)n(CC(=O)Nc2cc(F)ccc2F)c(N2CCOCC2)n1` gave an RP-LC retention time of 770 s.
Work on `CNC(=O)c1ccc(Nc2c(-c3ccccc3)nc3cnccn23)cc1` yielded an RP-LC retention time of 644 s.
Work on `O=S(=O)(c1ccc2nncn2c1)N(Cc1cccc(F)c1)c1cccc(F)c1` yielded an RP-LC retention time of 851 s.
In the case of `CC1=C(c2cccc(Cl)c2)S(=O)(=O)N=C1N1CCCN(C(=O)c2cccs2)CC1`, the RP-LC retention time is reported as 860 s.
Work on `O=C(CCn1cnc2cc(-c3noc(/C=C/c4ccccc4)n3)ccc21)N1CCCC1` yielded an RP-LC retention time of 792 s.
`CC(Oc1ccc(Cl)cc1)C(=O)N1CCCN(c2cc(-c3ccc(Br)cc3)[nH]n2)CC1` (stereo not drawn) showed an RP-LC retention time of 892 s.
`CN1CCc2[nH]cnc2C12CCN(C(=O)Nc1ccc(Cl)cc1F)C2` (stereo not drawn) gave an RP-LC retention time of 567 s.
Compound `O=C(Cn1c(=O)n(Cc2ccc3c(c2)OCO3)c(=O)c2ncccc21)c1ccccc1` has an RP-LC retention time of 818 s.
`CCCCOc1ccc(C(=O)NC2(c3nc(CC)no3)CCCCC2)cc1` gave an RP-LC retention time of 1160 s.
In the case of `COc1ccc(N2CCN(C(=O)CCN3C(=O)C4C5C=CC(C5)C4C3=O)CC2)cc1` (stereo not drawn), the RP-LC retention time is reported as 650 s.
With `CCC(Sc1nncn1C)C(=O)Nc1nnc(-c2cccc([N+](=O)[O-])c2)s1` (stereo not drawn) the RP-LC retention time was 689 s.
With `CCc1nccn1Cc1noc(-c2ccc(OC)cc2)n1` the RP-LC retention time was 626 s.
Compound `Cc1ccc(C(=O)NCc2nn(C)c3ccccc23)cc1` has an RP-LC retention time of 810 s.
`O=C(NCCCn1nc(-c2ccncc2)ccc1=O)c1ccc2c(c1)OCO2` showed an RP-LC retention time of 555 s.
With `COc1ccc(-c2cnc(S(=O)(=O)CC(=O)NCc3ccccc3Cl)n2C)cc1` the RP-LC retention time was 819 s.
Work on `CCc1ccccc1N1C(=O)CN(S(C)(=O)=O)CC1(C)C(=O)NCc1ccc(F)cc1` (stereo not drawn) yielded an RP-LC retention time of 830 s.
For `O=C(C1CC1)N1CCC(c2noc(-c3ccccn3)n2)C1` (stereo not drawn), the RP-LC retention time was 636 s.
Work on `CCN(CC)C(=O)N1CCCN(S(C)(=O)=O)C(c2ccccc2)CC(=O)NCC1` (stereo not drawn) yielded an RP-LC retention time of 700 s.
In the case of `COc1cc(NC(=O)C2=Cc3cc(Br)ccc3OC2)cc(OC)c1OC`, the RP-LC retention time is reported as 997 s.
`Cc1ccc(S(=O)(=O)N2CCCCC2)cc1-c1nnc(-c2ccc(Cl)cc2)o1` showed an RP-LC retention time of 1250 s.
In the case of `CCn1cc(C(=O)NCc2ccccc2)c2cccnc21`, the RP-LC retention time is reported as 782 s.
In the case of `O=C(CSc1nnc2c3sc(N4CCCC4)nc3ncn12)N1CCN(c2ccc(F)cc2)CC1`, the RP-LC retention time is reported as 834 s.
For `COc1cc(NC(=O)CN2C(=O)C3CCCCN3c3ccc(C(=O)N(C)C)cc32)cc(OC)c1OC` (stereo not drawn), the RP-LC retention time was 734 s.
In the case of `COc1ccc(OC)c(NC2=NS(=O)(=O)C(c3ccccc3)=C2C)c1`, the RP-LC retention time is reported as 948 s.
Work on `CN(C)C[C@@H]1CN(S(C)(=O)=O)C[C@H]1NC(=O)Cn1c(=O)oc2ccccc21` yielded an RP-LC retention time of 575 s.
Compound `CC(C)Oc1ccc(CNC(=O)c2sc3ncccc3c2-n2cccc2)cc1` has an RP-LC retention time of 1110 s.
`CC(NC(=O)c1ccco1)c1nc(-c2ccc(N3CCCC3)cc2)no1` (stereo not drawn) gave an RP-LC retention time of 941 s.
Work on `Cc1cc(C)n(-c2cc(N3CCCC(C(=O)Nc4cc(C)on4)C3)ncn2)n1` (stereo not drawn) yielded an RP-LC retention time of 762 s.
In the case of `CN1C(=O)C(C)(C(=O)N2CCC(Cc3ccccc3)CC2)Oc2cccnc21` (stereo not drawn), the RP-LC retention time is reported as 1020 s.
For `O=C(c1ccc(-c2noc(C3CCC3)n2)cc1)N1CCCC1`, the RP-LC retention time was 879 s.
With `Cn1cc(-c2cc3n(n2)CCC(=O)N3CCCC(=O)NCCCN2CCCC2)c2ccccc21` the RP-LC retention time was 621 s.
`O=C(Nc1ccc(F)cc1)c1cn(CC(O)c2ccc3c(c2)OCO3)nn1` (stereo not drawn) gave an RP-LC retention time of 777 s.
`CCc1nc(-c2cc(S(=O)(=O)N3CCC(C(=O)NC4CC4)CC3)c(C)s2)no1` gave an RP-LC retention time of 744 s.
For `O=C(CCc1nnn2c1CN(C(=O)COc1ccc(F)cc1)CC2)N1CCCC1`, the RP-LC retention time was 665 s.
Work on `C=CCN1C(=O)COc2ccc(-c3csc(NC(=O)c4ccccc4)n3)cc21` yielded an RP-LC retention time of 982 s.
`CCOC(=O)C1CCN(C(=O)c2cn(-c3cc(N4CCC(C)CC4)ncn3)cn2)CC1` gave an RP-LC retention time of 941 s.
For `CCn1cc(-c2nc(C)c(C(=O)Nc3ccc(C)cc3)s2)c2cccnc21`, the RP-LC retention time was 784 s.
`CSCc1csc(NC(=O)C2CCCC2)n1` gave an RP-LC retention time of 782 s.
`CC(=O)N1CCc2cc(-c3ccc(C(=O)N4CCN(c5ncccn5)CC4)cc3)ccc21` gave an RP-LC retention time of 771 s.
For `O=C1CCCCC(CNC(=O)c2cccs2)N1` (stereo not drawn), the RP-LC retention time was 616 s.
For `COc1cc(-c2nnc(-c3ccc(C)c(S(=O)(=O)N4CCOCC4)c3)o2)cc(OC)c1OC`, the RP-LC retention time was 891 s.
`COc1ccc(-c2cn3c(CC(=O)Nc4ccccc4F)csc3n2)cc1OC` showed an RP-LC retention time of 724 s.
With `CN(C)c1ccc(-c2nc(-c3cn(Cc4cccc(F)c4)nn3)no2)cc1` the RP-LC retention time was 1020 s.
Compound `CC(C)N1CCn2cc(S(=O)(=O)Nc3cccc(F)c3)cc2C1=O` has an RP-LC retention time of 751 s.
With `O=C(Cn1nc2c3cc(-c4ccc(F)cc4)nn3ccn2c1=O)NC1CCCC1` the RP-LC retention time was 824 s.
Work on `Cc1ccc(NC(=O)CN2C(=O)CCCc3cc(S(=O)(=O)N4CCCCC4)ccc32)cc1F` yielded an RP-LC retention time of 953 s.
`Cc1ccccc1CNC(=O)C1CCN(S(=O)(=O)c2cc(C(=O)N3CCCC3)n(C)c2)CC1` showed an RP-LC retention time of 738 s.
